Source: patent publication US20220403339A1, “3D HUMAN LIVER ORGAN MODEL CONSTRUCTING METHOD, 3D HUMAN LIVER ORGAN MODEL AND USE THEREOF” (priority 2020, published 2022)

Key:
[1] = test system: human primary liver cells; conditions: 100 μM drug; 3D model II-2 (human primary liver cells, 5000 cells per micropore) vs 2D comparison model II; FIG. 15
Protocol: (§1) 3. […] In a long-time administration test of the 3D human liver organ model, 100 μM is administered once, and if repeated administration is required, a drug is changed in the middle and the concentration is maintained. Each 3D human liver organ model and each 2D liver organ model need to be provided with a blank group, a negative control group and a positive control group, and each group is provided with six replicate wells.
(§2) 4. […] After drug incubation is completed, the culture medium with the drugs is removed, 100 μL of a mixed solution of a cell titer blue stock solution and a complete culture medium in a ratio of 1:5 is added, incubation is conducted for 3 h at 37° C., and a detection wavelength is […]. For example, the Cell titer 3D glo is added to evaluate the ATP of the 3D liver model, so that the action effect of the drugs is evaluated. After drug incubation is completed, the culture medium with the drugs is removed, 100 μL of a mixed solution of a Cell titer 3D glo stock solution and a complete culture medium in a ratio of 1:1 is added, incubation is conducted for 0.5 h at normal temperature, and detection is conducted in a Luminescence mode. For example, a high-content imaging technology is used for imaging characterization of the number of living and dead cells, and characterization of cell mitochondrial activity and membrane potential to evaluate hepatotoxicity drugs. The embodiment is applicable to, but not limited to, the above characterization method.

[2] = clinical classification; cited from earlier work
[3] = test system: human liver cancer cell lines hepG2; type: cell-based; conditions: 100 μM drug; 3D model I-1 (hepG2, 2000 cells per micropore) vs 2D comparison model I; FIG. 8
Protocol: as §1, §2

SMILES	hepatotoxicity inhibition on the 3D liver organ model compared with the 2D liver organ comparison model [1]	clinically confirmed hepatotoxicity class [2]	hepatotoxicity inhibition on the 3D liver organ model compared with the 2D liver organ comparison model [3]
CN(C)[C@@H]1C(=O)C(C(N)=O)=C(O)[C@@]2(O)C(=O)C3=C(O)c4c(O)cccc4[C@@](C)(O)[C@H]3C[C@@H]12 [compound 9, tetracycline]	stronger hepatotoxicity inhibition	low-hepatotoxicity	–
O=C(OCC(O)CO)c1ccccc1Nc1ccnc2cc(Cl)ccc12 (stereo not drawn) [compound 10, glafenine]	stronger hepatotoxicity inhibition	low-hepatotoxicity	–
CN(CCOc1ccc(CC2SC(=O)NC2=O)cc1)c1ccccn1 (stereo not drawn) [compound 6, rosiglitazone]	stronger hepatotoxicity inhibition	low-hepatotoxicity	stronger hepatotoxicity inhibition
Cc1ccc(-c2cc(C(F)(F)F)nn2-c2ccc(S(N)(=O)=O)cc2)cc1 [compound 8, celecoxib]	–	low-hepatotoxicity	stronger hepatotoxicity inhibition
COc1ccccc1Oc1c(NS(=O)(=O)c2ccc(C(C)(C)C)cc2)nc(-c2ncccn2)nc1OCCO [compound 5, bosentan]	stronger hepatotoxicity inhibition	low-hepatotoxicity	stronger hepatotoxicity inhibition
CN(C)CCC=C1c2ccccc2CCc2ccccc21 [compound 12, amitriptyline]	–	low-hepatotoxicity	stronger hepatotoxicity inhibition
CC(=O)Nc1ccc(O)cc1 [compound 15, paracetamol]	stronger hepatotoxicity inhibition	–	–
